Experimental data published in patent US11639446B2, “Cationic electrodeposition coating composition” (KANSAI PAINT CO., LTD., priority 2017, dated 2023).

Experiment: Water solubility of catalyst

Compound	Water solubility of catalyst
CCCCCCC[CH2][Sn](=[O])[CH2]CCCCCCC [Dioctyltin oxide, reference compound]	Insoluble
Cn1cc[n+](C)c1C(=O)[O-] [modified imidazole A, 1,3-dimethylimidazolium-2-carboxylate]	Soluble
CCCC[n+]1ccn(C)c1C(=O)[O-] [modified imidazole B]	Soluble
Cn1cc[n+](C)c1/C([O-])=N\c1ccccc1 [modified imidazole C]	Insoluble

More lines, now with the values ahead:

Water solubility of catalyst	Compound
Insoluble	CCCCCCCC[n+]1ccn(C)c1/C([O-])=N\c1ccccc1 [modified imidazole E]
Insoluble	CCCCCCCCn1cc[n+](CCCCCCCC)c1/C([O-])=N\c1ccccc1 [modified imidazole F]
Soluble	Cn1cc[n+](C)c1.[Cl-] [reference compound]
